This series can be described thus: recombinant UMI read abundance after kanamycin selection (control-corrected) (log10(CPM+1)); higher = more efficient recombination; extreme values may be limits of the assay; sequences stand for … in AGTGCAGAGAAAATCGGCCAGTTTTCTCTGCCTGCAGTCCGCATGCCGTGGGACCCCTTGGGTTCTAACCTGTTGCCTAGATTTATGCAGCGGACTGCCTTTCTCCCAAAGTGATAAACCGG…AGGTTGGTTTCACT; site = the 11-nt donor. An outline of the steps:
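Counts of recombinant UMIs were reported as log10(CPM+1). Before that, they were converted to CPM, averaged over replicates and scaled using control-derived factors. They came from PCR across the donor–target junction after Escherichia coli carrying the pair library and target plasmid was plated on IPTG (0.07 mM) plus kanamycin, or unselected, in two replicates each.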
On to “AGGACTACATGGACCGGTTTTCCCGGTAATCCGTATTTGAT (site AGGACTACTCT)”, for which the “recombinant UMI read abundance (log10)” value stood at 0.00954.
To “AGGACTACATGGACCGGTTTTCCCGGTAATCCGTATTTGAT (site AGGACTACTGT)” belongs 0; to “AGGACTACATGGACCGGTTTTCCCGGTAATCCGTATTTGAT (site AGGACTACTTT)”, 0.00536; to “AGGACTACATGGACCGGTTTTCCCGGTAATCCGTATTTGCT (site AGGACTACTAG)”, 2.5.
The same measure for “AGGACTACATGGACCGGTTTTCCCGGTAATCCGTATTTGTC (site AGGACTACTGA)”: 2.
To “AGGACTACATGGACCGGTTTTCCCGGTAATCCGTATTTGTC (site AGGACTACTGC)” belongs 0; to “AGGACTACATGGACCGGTTTTCCCGGTAATCCGTATTTGTC (site AGGACTACTGG)”, 0.
Turning to “AGGACTACATGGACCGGTTTTCCCGGTAATCCGTATTTGTC (site AGGACTACTGT)”, the “recombinant UMI read abundance (log10)” value was found to be 1.37.
To “AGGAGCACATGGACCGGTTTTCCCGGTAATCCGTATTTGCA (site AGGAAGACTTG)” belongs 0; to “AGGAGCACATGGACCGGTTTTCCCGGTAATCCGTATTTGCA (site AGGAGCACTTG)”, 2.37; to “AGGAGGCCATGGACCGGTTTTCCCGGTAATCCGTATTTGAG (site AGGAGGCCTCT)”, 0.233.
The same measure for “AGGATCTCATGGACCGGTTTTCCCGGTAATCCGTATTTGTG (site AGGATCTCTCA)”: 2.92; for “AGGATTTCATGGACCGGTTTTCCCGGTAATCCGTATTTGCG (site AGGATTTCTCG)”: 1.32.
Regarding “AGGCAAACATGGACCGGTTTTCCCGGTAATCCGTATTTGTA (site AGGCAAACTTA)”, the “recombinant UMI read abundance (log10)” value is 1.9.
Take “AGGCAGACATGGACCGGTTTTCCCGGTAATCCGTATTTGCA (site AGGAAGACTTG)”: the “recombinant UMI read abundance (log10)” value came out at 0.346.
To “AGGCAGACATGGACCGGTTTTCCCGGTAATCCGTATTTGCA (site AGGCAGACTTG)” belongs 2.49; to “AGGCAGACATGGACCGGTTTTCCCGGTAATCCGTATTTGCA (site AGGGAGACTTG)”, 0.0572.
Take “AGGCAGACATGGACCGGTTTTCCCGGTAATCCGTATTTGCA (site AGGTAGACTTG)”: the “recombinant UMI read abundance (log10)” value worked out at 0.965.
On to “AGGCAGACATGGACCGGTTTTCCCGGTAATCCGTATTTGCT (site AGGAAGACTTG)”, for which the “recombinant UMI read abundance (log10)” value was determined as 0.
Consider “AGGCAGACATGGACCGGTTTTCCCGGTAATCCGTATTTGCT (site AGGCAGACTAG)”, for which the “recombinant UMI read abundance (log10)” value was 2.13.
The same measure for “AGGCCGGCATGGACCGGTTTTCCCGGTAATCCGTATTTGGC (site AGGCCGGCTGC)”: 1.07; for “AGGCCGGCATGGACCGGTTTTCCCGGTAATCCGTATTTGGC (site CGGCCGGCTGC)”: 0.
The same measure for “AGGCCGGCATGGACCGGTTTTCCCGGTAATCCGTATTTGGC (site GGGCCGGCTGC)”: 0; for “AGGCCGGCATGGACCGGTTTTCCCGGTAATCCGTATTTGGC (site TGGCCGGCTGC)”: 0.
To “AGGCCTACATGGACCGGTTTTCCCGGTAATCCGTATTTGAC (site AGGACTACTGT)” belongs 0.528; to “AGGCCTACATGGACCGGTTTTCCCGGTAATCCGTATTTGAC (site AGGCCTACTGT)”, 2.67.
Consider “AGGCCTACATGGACCGGTTTTCCCGGTAATCCGTATTTGAC (site AGGGCTACTGT)”, for which the “recombinant UMI read abundance (log10)” value stood at 0.
To “AGGCCTACATGGACCGGTTTTCCCGGTAATCCGTATTTGAC (site AGGTCTACTGT)” belongs 0.
To “AGGCGTTCATGGACCGGTTTTCCCGGTAATCCGTATTTGTG (site AGGCGTTCTCA)” belongs 1.09; to “AGGCTTTCATGGACCGGTTTTCCCGGTAATCCGTATTTGAC (site AGACTTTCTGT)”, 0.817.
The same measure for “AGGCTTTCATGGACCGGTTTTCCCGGTAATCCGTATTTGAC (site AGCCTTTCTGT)”: 0.212.
For the sequence “AGGCTTTCATGGACCGGTTTTCCCGGTAATCCGTATTTGAC (site AGGCTTTCTGT)”, the “recombinant UMI read abundance (log10)” value was found to be 0.502.
The same measure for “AGGCTTTCATGGACCGGTTTTCCCGGTAATCCGTATTTGAC (site AGTCTTTCTGT)”: 0; for “AGGCTTTCATGGACCGGTTTTCCCGGTAATCCGTATTTGGC (site AGGCTTTCTGC)”: 1.61.
To “AGGGATCCATGGACCGGTTTTCCCGGTAATCCGTATTTGAG (site AGGGATCCTCT)” belongs 0.635; to “AGGGCAACATGGACCGGTTTTCCCGGTAATCCGTATTTGTT (site AGGGCAACTAA)”, 0.85; to “AGGGGTTCATGGACCGGTTTTCCCGGTAATCCGTATTTGTC (site AGGGGTTCTGA)”, 3.19.
Turning to “AGGGTACCATGGACCGGTTTTCCCGGTAATCCGTATTTGTA (site AGGGTACCTTA)”, the “recombinant UMI read abundance (log10)” value came to 0.0065.
The same measure for “AGGGTTACATGGACCGGTTTTCCCGGTAATCCGTATTTGGG (site AGGGTTACTCC)”: 0.175; for “AGGTACGCATGGACCGGTTTTCCCGGTAATCCGTATTTGCC (site AGGTACGCTGG)”: 2.36.
In the case of “AGGTCGGCATGGACCGGTTTTCCCGGTAATCCGTATTTGTA (site AGGTCGGCTTA)”, the “recombinant UMI read abundance (log10)” value was found to be 1.01.
“AGGTTACCATGGACCGGTTTTCCCGGTAATCCGTATTTGTG (site AGGTTACCTCA)”: the “recombinant UMI read abundance (log10)” value was determined as 0.0116.
For “AGGTTACCATGGACCGGTTTTCCCGGTAATCCGTATTTGTG (site AGGTTCCCTCA)”, the “recombinant UMI read abundance (log10)” value turned out to be 0.
Regarding “AGGTTACCATGGACCGGTTTTCCCGGTAATCCGTATTTGTG (site AGGTTGCCTCA)”, the “recombinant UMI read abundance (log10)” value is 0.00949.
Regarding “AGGTTACCATGGACCGGTTTTCCCGGTAATCCGTATTTGTG (site AGGTTTCCTCA)”, the “recombinant UMI read abundance (log10)” value was found to be 0.00461.
“AGGTTCCCATGGACCGGTTTTCCCGGTAATCCGTATTTGTT (site AGGTTCCCTAA)”: the “recombinant UMI read abundance (log10)” value came to 0.
The same measure for “AGGTTCCCATGGACCGGTTTTCCCGGTAATCCGTATTTGTT (site AGGTTCCCTCA)”: 0.0252.
To “AGGTTCCCATGGACCGGTTTTCCCGGTAATCCGTATTTGTT (site AGGTTCCCTGA)” belongs 0.
The same measure for “AGGTTCCCATGGACCGGTTTTCCCGGTAATCCGTATTTGTT (site AGGTTCCCTTA)”: 0; for “AGGTTCGCATGGACCGGTTTTCCCGGTAATCCGTATTTGTG (site AGGTTCACTCA)”: 0.217; for “AGGTTCGCATGGACCGGTTTTCCCGGTAATCCGTATTTGTG (site AGGTTCCCTCA)”: 0.015.
Consider “AGGTTCGCATGGACCGGTTTTCCCGGTAATCCGTATTTGTG (site AGGTTCGCTCA)”, for which the “recombinant UMI read abundance (log10)” value came out at 0.666.

Source of the values: the supplement of paper PMC11208160.
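Note: IS621 bridge recombinase in Escherichia coli cells against a fixed T5 target plasmid.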
